In patent publication US5753661A, “Fused benzo compounds containing a nitrogen heterocycle for the treatment of central nervous system disorders” (priority 1992, dated 1998):
pIC50: −log10 of the molar value.

What was measured:
[1] = molecular target: T1, 5-HT1A receptor (Rattus norvegicus, UniProt P19327); assay: Generalization to the discriminative stimulus properties induced by 8-OH-DPAT in rats (8-OH-DPAT cue, agonism); type: in vivo, rat (male Wistar); parameters: from tissue; host or cells: living male Wistar rat (in vivo, endogenous receptor); conditions: for ED50: rat, sc, usually 30 or 45 min before test
T1 sequence (P19327 1-422): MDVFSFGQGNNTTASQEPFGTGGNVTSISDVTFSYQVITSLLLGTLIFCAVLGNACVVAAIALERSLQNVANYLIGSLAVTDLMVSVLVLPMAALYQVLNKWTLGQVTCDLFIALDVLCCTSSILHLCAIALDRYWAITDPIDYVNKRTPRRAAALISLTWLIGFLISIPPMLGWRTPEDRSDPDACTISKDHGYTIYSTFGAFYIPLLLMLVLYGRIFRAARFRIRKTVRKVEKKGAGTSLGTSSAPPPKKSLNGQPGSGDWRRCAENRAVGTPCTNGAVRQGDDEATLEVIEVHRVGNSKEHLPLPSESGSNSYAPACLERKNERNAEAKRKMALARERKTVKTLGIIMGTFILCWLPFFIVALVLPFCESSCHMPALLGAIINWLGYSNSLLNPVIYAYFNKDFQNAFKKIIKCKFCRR
Excerpt: Generalization to the Discriminative Stimulus Properties Induced by 8-OH-DPAT in Rats
This test is used to determine the 5-HT1A receptor agonistic effect of a test compound in vivo. A related method is described by Tricklebank, M. D., supra; Amt, J. Pharmacology & Toxicology, 1989, 64, 165.
The per cent drug responce obtained for each dose of test compound is used to calculate ED50 values by log-probit analysis.

[2] = molecular target: T1, 5-HT1A receptor; assay: Inhibition of 3H-8-OH-DPAT binding to serotonin 5-HT1A receptors in rat brain in vitro; parameters: 5-HT1A receptors in membranes from rat brain minus cerebellum; from tissue; host or cells: rat brain minus cerebellum, membranes; conditions: 3H-8-OH-DPAT 1 nM; membranes from rat brain minus cerebellum; read-out: IC50, 3H 8-OH-DPAT binding
Procedure: Inhibition of ^3 H-8-OH-DPAT Binding to Serotonin 5-HT1A Receptors in Rat Brain in vitro.
By this method the inhibition by drugs of the binding of the 5-HT1A agonist 3H-8-OH-DPAT (1 nM) to 5-HT1A receptors in membranes from rat brain minus cerebellum is determined in vitro . Accordingly, this is a test for affinity for the 5-HT1A receptor. The assay was performed as described by Hyttel et al., Drug Dev. Res. 1988, 15, 389-404.

[3] = molecular target: T1, 5-HT1A receptor; assay: Antagonism of the discriminative stimulus properties induced by 8-OH-DPAT in rats (8-OH-DPAT cue); type: in vivo, rat (male Wistar); parameters: from tissue; host or cells: living male Wistar rat (in vivo, endogenous receptor); conditions: sc, before 8-OH-DPAT 0.4 mg/kg i.p.
Procedure: Antagonism of the Discriminative Stimulus Properties Induced by 8-OH-DPAT in Rats.
This test is used to determine the 5-HT1A receptor antagonistic effect of a test compound in vivo. A related method is described by Tricklebank, M. D., et al, Eur. J. Pharmacol, 1987, 133, 47-56; Amt, J. Pharmacology & Toxicology, 1989, 64, 165.
Male Wistar rats are trained to discriminate between 8-OH-DPAT (0.4 mg/kg, i.p., 15 min pretreatment) and physiological saline in operant chambers equipped with two response levers. Between the levers a dipper is placed, where water rewards (0.1 ml) are presented. The rats are water deprived for at least 24 h and work in a fixed ratio (FR) schedule (final FR=32).
Following 8-OH-DPAT administration, responding is reinforced only on a designated (drug) lever, whereas responding on the opposite lever has no consequences. Following saline administration, responding is reinforced on the lever opposite to the drug lever. Drug and saline trials alternate randomly between days. The level of discrimination accuracy is expressed as the per cent drug responses and is calculated as the number of correct responses ×100 divided by the sum of the correct and incorrect responses before the first reward. The time to the first reward is also recorded as a measure of reaction time. When stable accuracy (mean correct responding=90%; individual rats at least 75% correct responding) is obtained test sessions are included between training days. Test compound is injected s.c. or p.o. at appropriate time before 8-OH-DPAT and the test begins 15 min after 8-OH-DPAT injection. The test trial is terminated when a total of 32 responses are made on either lever or when 20 min have elapsed. No reward is given and the rats have free access to water for 20-30 min after the test. The effects are expressed as per cent inhibition of drug responding. Only results from rats making at least 10 responses on one lever are included in data analysis. Furthermore, only test sessions in which at least half of the rats respond are included.
The per cent inhibition of drug response obtained for each dose of test compound is used to calculate ED50 values by log-probit analysis.

[4] = molecular target: T1, 5-HT1A receptor; assay: Inhibition of 5-MeO-DMT-induced 5-HT syndrome in rats; type: in vivo, rat (male Wistar); parameters: Male Wistar rats (Mol:Wist) weighing 170-240 g are used; from tissue; host or cells: living male Wistar rat (Mol:Wist) (in vivo, endogenous receptor); conditions: sc, 5-MeO-DMT 5 mg/kg s.c., inhibition of piano playing
Excerpt: Inhibition of 5-MeO-DMT-Induced 5-HT Syndrome in Rats
The so-called 5-HT syndrome is a characteristic pattern of behaviours which are induced by 5-HT agonists with effects on 5-HT, possibly 5-HT1A receptors (Smith, L. M. and Peroutka, S. J., Pharmacol. Biochem. & Behaviour, 1986, 24, 1513; Tricklebank, M. et al, Eur. J. Pharmacol. 1985, 117, 15). This test is a test for determining the antagonist effects of a test compound on 5-HT1A receptors in vivo by measuring the ability to inhibit 5-MeO-DMT induced 5-HT syndrome.
Male Wistar rats (Mol:Wist) weighing 170-240 g are used. Test substance is injected s.c. before 5-MeO-DMT 5 mg/kg, s.c. Four rats are used for each dose. A control group pretreated with saline is included each test day. 10, 15 and 20 min later the rats are observed for presence of serotonin (5-HT) syndrome. The following symptoms are recorded: 1) forepaw treading ("piano playing"), 2) head weaving and 3) hindleg abduction. Furthermore, flat motility is scored. Each part of the syndrome is scored as follows: marked effect (score 2), weak syndrome (score 1) and no effect (score 0). The scores of the three observation periods are added. Thus the maximum obtainable score for four rats is 24. The effect of the test substance is expressed as percent inhibition relative to the control group.
The percent inhibition of the piano playing syndrome is used as the response and ED50 value are calculated by log-probit analysis.

Structure (SMILES): CC1(C)Cc2cccc(N3CCN(CCN4CCN(c5ccccc5)C4=O)CC3)c2O1 [Compound 2n, 1-[2-[4-(2,3-Dihydro-2,2-dimethylbenzofuran-7-yl)-1-piperazinyl]ethyl]-3-phenyl-2-imidazolidinone]
- ED50 [1]: 0.13 µmol/kg
- pIC50 [2]: 8.49

Structure (SMILES): O=C1N(CCN2CCN(c3cccc4[nH]ccc34)CC2)CCN1C1CCCC1 [Compound 2y, 1-Cyclopentyl-3-[2-[4-(4-indolyl)-1-piperazinyl]ethyl]-2-imidazolidinone]
- ED50 [3]: 1.9 µmol/kg
- pIC50 [2]: 7.55
- ED50 [4]: 2.7 µmol/kg

Structure (SMILES): [O-][S+](CCCN1CCN(c2cccc3c2OCCO3)CC1)C1CCCCC1 (stereo not shown) [Compound 3a, 1-(1,4-Benzodioxan-5-yl)-4-(3-cyclohexylthio-1-propyl)piperazine S-oxide]
- ED50 [1]: 0.02 µmol/kg
- pIC50 [2]: 8.74
- ED50 [4]: 5.2 µmol/kg

Structure (SMILES): O=S(=O)(CCCN1CCN(c2cccc3c2OCC3)CC1)C1CCCCC1 [Compound 1c, 1-(3-Cyclohexylsulfonyl-1-propyl)-4-(2,3-dihydrobenzofuran-7-yl)piperazine]
- ED50 [1]: 0.069 µmol/kg
- pIC50 [2]: 8.59
- ED50 [4]: 12 µmol/kg

Structure (SMILES): CC1(C)Cc2cccc(N3CCN(CCN4CCN(C5CCCC5)C4=O)CC3)c2O1 [Compound 2p, 1-Cyclopentyl-3-[2-[4-(2,3-dihydro-2,2-dimethylbenzofuran-7-yl)-1-piperazinyl]ethyl]-2-imidazolidinone]
- ED50 [1]: 1.1 µmol/kg
- pIC50 [2]: 8.43
- ED50 [4]: 4.2 µmol/kg

Structure (SMILES): O=c1n(CCN2CCN(c3cccc4c3OCCO4)CC2)ccn1-c1ccc(F)cc1 [Compound 5a, 1-[3-[4-(1,4-Benzodioxan-5-yl)-1-piperazinyl]-1-ethyl]-1,3-dihydro-3-(4-fluorophenyl)-2-imidazolone]
- ED50 [1]: 1.8 µmol/kg
- pIC50 [2]: 7.96
- ED50 [4]: 12 µmol/kg

Structure (SMILES): O=C1N(CCN2CCN(c3cccc4ccoc34)CC2)CCN1c1ccccc1 [Compound 2m, 1-[2-[4-Benzofuran-7-yl-1-piperazinyl]ethyl]-3-phenyl-2-imidazolidinone]
- ED50 [1]: 2.3 µmol/kg
- pIC50 [2]: 7.92

Structure (SMILES): CC1(C)Cc2cccc(N3CCN(CCCCN4CCN(C5CCCCC5)C4=O)CC3)c2O1 [Compound 2bb, 1-Cyclohexyl-3-[4-[4-(2,3-dihydro-2,2-dimethylbenzofuran-7-yl)-1-piperazinyl]-1-butyl]-2-imidazolidinone]
- ED50 [1]: 0.036 µmol/kg
- pIC50 [2]: 9.04
- ED50 [4]: 0.78 µmol/kg

Structure (SMILES): O=C1N(CCN2CCN(c3cccc4c3OCCO4)CC2)CCN1C1CCCCC1 [Compound 2d, 1-[2-[4-(1,4-Benzodioxan-5-yl)-1-piperazinyl]ethyl]-3-cyclohexyl-2-imidazolidinone]
- ED50 [3]: 6.3 µmol/kg
- agonist activity/efficacy in words, 8-OH-DPAT cue ([1]; 8-OH-DPAT cue model, s.c.): partial agonist
- response, 8-OH-DPAT cue agonism ([1]; at 0.08-19 μmol/kg, s.c. (note b)): 30-50%
- ED50 [4]: 10 µmol/kg

Structure (SMILES): O=S(=O)(CCCN1CCN(c2cccc3c2OCCO3)CC1)C12CC3CC(CC(C3)C1)C2 [Compound 1f, 1-[3-(1-Adamantyl)sulfonyl-1-propyl]-4-(1,4-benzodioxan-5-yl)piperazine]
- ED50 [1]: 0.052 µmol/kg
- pIC50 [2]: 8.96
- ED50 [4]: 0.47 µmol/kg

Structure (SMILES): O=S(=O)(CCCN1CCN(c2cccc3c2OCCO3)CC1)c1ccccc1 [Compound 1b, 1-(1,4-Benzodioxan-5-yl)-4-(3-phenylsulfonyl-1-propyl)piperazine]
- ED50 [1]: 0.099 µmol/kg
- pIC50 [2]: 8.11
- ED50 [4]: 9.5 µmol/kg

Structure (SMILES): O=C1N(CCN2CCN(c3cccc4occc34)CC2)CCN1C1CCCC1 [Compound 2s, 1-[2-(4-Benzofuran-4-yl-1-piperazinyl)ethyl]-3-cyclopentyl-2-imidazolidinone]
- pIC50 [2]: 7.49

Structure (SMILES): O=C1N(CCN2CCN(c3cccc4c3NCC4)CC2)CCN1C1CCCC1 [Compound 9a, 1-Cyclopentyl-3-[2-[4-(7-indolinyl)-1-piperazinyl]ethyl]-2-imidazolidinone]
- pIC50 [2]: 6.64

Structure (SMILES): O=C1N(CCN2CCN(c3cccc4nsnc34)CC2)CCN1c1ccccc1 [Compound 2h, 4-[4-[2-(3-Phenylimidazolidin-2-on-1-yl)ethyl]-1-piperazinyl]-2,1,3-benzothiadiazole]
- pIC50 [2]: 7.55

Structure (SMILES): CC1(C)COc2c(N3CCN(CCCCCCN4CCN(C5CCCC5)C4=O)CC3)cc(Cl)cc21 [Compound 2pp]
- pIC50 [2]: 7.70

Structure (SMILES): O=C1N(CCN2CCN(c3cccc4c3ccn4-c3ccc(F)cc3)CC2)CCN1C1CCCC1 [Compound 7a, 1-Cyclopentyl-3-[2-[4-[1-(4-fluorophenyl)-4-indolyl]-1-piperazinyl]ethyl]-2-imidazolidinone]
- pIC50 [2]: 4.29

Structure (SMILES): O=C1N(CCN2CCN(c3cccc4ccsc34)CC2)CCN1C1CCCC1 [Compound 2aa, 1-[2-[4-Benzo[b]thiophen-7-yl-1-piperazinyl]ethyl]-3-cyclopentyl-2-imidazolidinone]
- pIC50 [2]: 7.96

Structure (SMILES): O=C1N(CCN2CCN(c3cccc4c3OCC4)CC2)CCN1C1CCCC1 [Compound 2f, 1-Cyclopentyl-3-[2-[4-(2,3-dihydrobenzofuran-7-yl)-1-piperazinyl]ethyl]-2-imidazolidinone]
- ED50 [1]: 40 µmol/kg
- pIC50 [2]: 7.27
- ED50 [4]: 28 µmol/kg

Structure (SMILES): O=S(=O)(CCN1CCN(c2cccc3c2OCC3)CC1)C1CCCCC1 [Compound 6a, 1-(2-Cyclohexylsulfonyl-1-ethyl)-4-(2,3-dihydrobenzofuran-7-yl)piperazine]
- pIC50 [2]: 6.66

Structure (SMILES): CC1(C)Cc2cccc(N3CCN(CCCN4CCN(C5CCCCC5)C4=O)CC3)c2O1 [Compound 2kk, 1-Cyclohexyl-3-[3-[4-(2,3-dihydro-2,2-dimethylbenzofuran-7-yl)-1-piperazinyl]-1-propyl]-2-imidazolidinone]
- pIC50 [2]: 8.24
